Test results from ChEMBL document CHEMBL5303573, “Mapping human microbiome drug metabolism by gut bacteria and their genes” (Nature, 2019).

How the values were obtained:
[1] = The drug is tested on Bacteroides sp. WH2 strain: WH2 for biotransformation. The drug concentrations were measured before and after a 12-h incubation by liquid-chromatography-coupled mass spectrometry (LC–MS); settings: bacteroides sp. wh2, 12 h, 2 µM
[2] = The drug is tested on Bacteroides fragilis strain: HMW610 for biotransformation. The drug concentrations were measured before and after a 12-h incubation by liquid-chromatography-coupled mass spectrometry (LC–MS); settings: 2 µM
[3] = The drug is tested on Anaerococcus hydrogenalis strain: DSM7454 for biotransformation. The drug concentrations were measured before and after a 12-h incubation by liquid-chromatography-coupled mass spectrometry (LC–MS); settings: 2 µM
[4] = bacteroides fragilis, 12 h, 2 µM
Description: The drug is tested on Bacteroides fragilis strain: NCTC 9343 for biotransformation. The drug concentrations were measured before and after a 12-h incubation by liquid-chromatography-coupled mass spectrometry (LC–MS)

[5] = bifidobacterium adolescentis, 12 h, 2 µM
Description: The drug is tested on Bifidobacterium adolescentis strain: ATCC 15703 for biotransformation. The drug concentrations were measured before and after a 12-h incubation by liquid-chromatography-coupled mass spectrometry (LC–MS)

[6] = The drug is tested on Bacteroides ovatus strain: ATCC8483 for biotransformation. The drug concentrations were measured before and after a 12-h incubation by liquid-chromatography-coupled mass spectrometry (LC–MS); settings: 2 µM
[7] = The drug is tested on Bacteroides coprophilus strain: DSM18228 for biotransformation. The drug concentrations were measured before and after a 12-h incubation by liquid-chromatography-coupled mass spectrometry (LC–MS); settings: 2 µM
[8] = bacteroides eggerthii, 12 h, 2 µM
Description: The drug is tested on Bacteroides eggerthii strain: DSM20697 for biotransformation. The drug concentrations were measured before and after a 12-h incubation by liquid-chromatography-coupled mass spectrometry (LC–MS)

[9] = The drug is tested on Bacteroides finegoldii strain: DSM17565 for biotransformation. The drug concentrations were measured before and after a 12-h incubation by liquid-chromatography-coupled mass spectrometry (LC–MS); settings: 2 µM
[10] = The drug is tested on Dorea formicigenerans strain: ATCC27755 for biotransformation. The drug concentrations were measured before and after a 12-h incubation by liquid-chromatography-coupled mass spectrometry (LC–MS); settings: 2 µM
[11] = segatella copri, 12 h, 2 µM
Description: The drug is tested on Prevotella copri strain: DSM18205 for biotransformation. The drug concentrations were measured before and after a 12-h incubation by liquid-chromatography-coupled mass spectrometry (LC–MS)

[12] = bacteroides thetaiotaomicron, 12 h, 2 µM
Description: The drug is tested on Bacteroides thetaiotaomicron strain: 3731 for biotransformation. The drug concentrations were measured before and after a 12-h incubation by liquid-chromatography-coupled mass spectrometry (LC–MS)

[13] = The drug is tested on Odoribacter splanchnicus strain: fecal isolate for biotransformation. The drug concentrations were measured before and after a 12-h incubation by liquid-chromatography-coupled mass spectrometry (LC–MS); settings: 2 µM
[14] = The drug is tested on Clostridium sporogenes strain: ATCC15579 for biotransformation. The drug concentrations were measured before and after a 12-h incubation by liquid-chromatography-coupled mass spectrometry (LC–MS); settings: 2 µM
[15] = The drug is tested on Eubacterium hallii strain: DSM3353 for biotransformation. The drug concentrations were measured before and after a 12-h incubation by liquid-chromatography-coupled mass spectrometry (LC–MS); settings: anaerobutyricum hallii, 2 µM
[16] = akkermansia muciniphila, 12 h, 2 µM
Description: The drug is tested on Akkermansia muciniphila strain: ATCC BAA-835 for biotransformation. The drug concentrations were measured before and after a 12-h incubation by liquid-chromatography-coupled mass spectrometry (LC–MS)

[17] = bacteroides fragilis, 12 h, 2 µM; remark: listed apart in the source
Description: The drug is tested on Bacteroides fragilis strain: DS-208 for biotransformation. The drug concentrations were measured before and after a 12-h incubation by liquid-chromatography-coupled mass spectrometry (LC–MS)

[18] = The drug is tested on Clostridium sp. strain: fecal isolate for biotransformation. The drug concentrations were measured before and after a 12-h incubation by liquid-chromatography-coupled mass spectrometry (LC–MS); settings: 2 µM
[19] = roseburia intestinalis, 12 h, 2 µM
Description: The drug is tested on Roseburia intestinalis strain: L1-82 for biotransformation. The drug concentrations were measured before and after a 12-h incubation by liquid-chromatography-coupled mass spectrometry (LC–MS)

Bacterial Biotransformation [1] | Bacterial Biotransformation [2] | Bacterial Biotransformation [3] | Bacterial Biotransformation [4] | Bacterial Biotransformation [5] | Bacterial Biotransformation [6] | Bacterial Biotransformation [7] | Bacterial Biotransformation [8] | Bacterial Biotransformation [9] | Bacterial Biotransformation [10] | Bacterial Biotransformation [11] | Bacterial Biotransformation [12] | Bacterial Biotransformation [13] | Bacterial Biotransformation [14] | Bacterial Biotransformation [15] | Bacterial Biotransformation [16] | Bacterial Biotransformation [17] | Bacterial Biotransformation [18] | SMILES | Bacterial Biotransformation [19]
Compound NOT metabolized | Compound metabolized | Compound NOT metabolized | Compound metabolized | Compound NOT metabolized | Compound NOT metabolized | Compound NOT metabolized | Compound metabolized | Compound metabolized | Compound NOT metabolized | Compound NOT metabolized | Compound NOT metabolized | Compound metabolized | Compound NOT metabolized | Compound NOT metabolized | Compound metabolized | Compound metabolized | Compound NOT metabolized | CC(C)(C)NC(=O)[C@H]1CC[C@H]2[C@@H]3CC[C@H]4NC(=O)C=C[C@]4(C)[C@H]3CC[C@]12C [FINASTERIDE] | 
Compound NOT metabolized | Compound NOT metabolized | Compound NOT metabolized | Compound NOT metabolized | Compound NOT metabolized | Compound NOT metabolized | Compound NOT metabolized | Compound NOT metabolized | Compound NOT metabolized | Compound NOT metabolized |  | Compound NOT metabolized | Compound NOT metabolized | Compound NOT metabolized | Compound NOT metabolized | Compound NOT metabolized | Compound NOT metabolized | Compound NOT metabolized | N#Cc1ccc(C(c2ccc(C#N)cc2)n2cncn2)cc1 [LETROZOLE] | Compound NOT metabolized
Compound NOT metabolized | Compound metabolized | Compound NOT metabolized |  | Compound NOT metabolized | Compound NOT metabolized | Compound NOT metabolized | Compound NOT metabolized | Compound NOT metabolized | Compound NOT metabolized | Compound NOT metabolized | Compound NOT metabolized | Compound metabolized | Compound NOT metabolized | Compound NOT metabolized | Compound NOT metabolized | Compound metabolized | Compound NOT metabolized | CC(C)[C@H]1CC[C@H](C(=O)N[C@H](Cc2ccccc2)C(=O)O)CC1 [NATEGLINIDE] | 

SMILES | Bacterial Biotransformation [1] | Bacterial Biotransformation [2] | Bacterial Biotransformation [3] | Bacterial Biotransformation [4] | Bacterial Biotransformation [5] | Bacterial Biotransformation [6] | Bacterial Biotransformation [7] | Bacterial Biotransformation [8] | Bacterial Biotransformation [9] | Bacterial Biotransformation [10] | Bacterial Biotransformation [11] | Bacterial Biotransformation [12] | Bacterial Biotransformation [13] | Bacterial Biotransformation [14] | Bacterial Biotransformation [15] | Bacterial Biotransformation [16] | Bacterial Biotransformation [17] | Bacterial Biotransformation [18] | Bacterial Biotransformation [19]
Cc1ccnc2c1NC(=O)c1cccnc1N2C1CC1 [NEVIRAPINE] | Compound NOT metabolized | Compound NOT metabolized | Compound NOT metabolized | Compound NOT metabolized | Compound NOT metabolized | Compound NOT metabolized | Compound NOT metabolized | Compound NOT metabolized | Compound NOT metabolized | Compound NOT metabolized | Compound NOT metabolized | Compound NOT metabolized |  | Compound NOT metabolized | Compound NOT metabolized | Compound NOT metabolized | Compound metabolized | Compound metabolized | Compound NOT metabolized
